From US20130178469A1, “NOVEL ANTIVIRAL AGENTS” (SHANGHAI INSTITUTE OF ORGANIC CHEMISTRY (SIOC), priority 2010, published 2013)

System: HIV-1
Experiment: Luciferase Assay with single-round reporter virus (NLXLuc or HIV-Luc)
Format: cell-based
Settings: Human immunodeficiency virus 1
From the text: Infectivity assays using reporter viruses derived from lentiviral vectors capable of a single round of infection were used to determine the activity (EC50) of compounds. The DNA used to generate viruses for infection was the full-length HIV-1 genome which had been envelope-deleted. In addition, a reporter gene (the firefly luciferase gene from Photinus pyralis) was cloned into the nefregion of the HIV backbone for ease of assay readout. […]. Culture supernatants containing VSV-G pseudotyped virions were harvested 64 h post transfection, clarified by centrifugation to remove cell debris, and frozen at −70° C. until use.
293FT cells were plated out at 12000 cells per well in CellView 96-well cell culture plates (Invitrogen) 16 h prior to compound addition. Compounds were preincubated with cells for 4 h at 37° C. prior to the addition of virus sufficient to generate approximately 10000 Luciferase light units (as measured by the Victor Wallace luminometer) upon assaying using the Bright-Glo™ reagent (Promega) according to the manufacturer's instructions at 48 h post infection.
In the tables below, this assay is referred to as NLXLuc or HIV-Luc.

Row | Structure (SMILES) | EC50 [nM]
1 | CN(C)c1cc(N2CCNCC2=O)c2nc(C(=O)NCc3ccc(F)cc3)c(O)c(=O)n2c1 [Example 9.3, 7-(dimethylamino)-N-(4-fluorobenzyl)-3-hydroxy-4-oxo-9-(2-oxopiperazin-1-yl)-4H-pyrido[1,2-a]pyrimidine-2-carboxamide] | 100 to 1000
2 | O=C(NCc1ccc(F)cc1)c1nc2c(N3CCOCC3)cc(N3CCOCC3)cn2c(=O)c1O [Example 21.5, N-(4-fluorobenzyl)-3-hydroxy-7,9-dimorpholino-4-oxo-4H-pyrido[1,2-a]pyrimidine-2-carboxamide] | 100 to 1000
3 | CC(C)N1CCN(c2cc(N3CCN(C)CC3)cn3c(=O)c(O)c(C(=O)NCc4ccc(F)cc4)nc23)C1=O [Example 17.4, 3-Hydroxy-9-(3-isopropyl-2-oxo-imidazolidin-1-yl)-7-(4-methyl-piperazin-1-yl)-4-oxo-4H-pyrido[1,2-a]pyrimidine-2-carboxylic acid 4-fluoro-benzylamide] | 20 to 100
4 | CC1COCCN1c1cc(N2CCNCC2=O)c2nc(C(=O)NCc3ccc(F)cc3)c(O)c(=O)n2c1 (centres unmarked) [Example 11.3, N-(4-fluorobenzyl)-3-hydroxy-7-(3-methylmorpholino)-4-oxo-9-(2-oxopiperazin-1-yl)-4H-pyrido[1,2-a]pyrimidine-2-carboxamide] | 100 to 1000
5 | Cc1ccc2nc(C(=O)NCc3ccc(F)cc3)c(O)c(=O)n2c1 [drawing 177, reference compound] | > 1000
6 | O=C(NCc1ccc(F)cc1)c1nc2c(N3CCOC3=O)cc(N3CCNCC3)cn2c(=O)c1O [Example 19.4, 3-Hydroxy-4-oxo-9-(2-oxo-oxazolidin-3-yl)-7-piperazin-1-yl-4H-pyrido[1,2-a]pyrimidine-2-carboxylic acid 4-fluoro-benzylamide] | > 1000
7 | O=C(NCc1ccc(F)cc1)c1nc2c(N3CCNCC3=O)cc(N3CCOCC3)cn2c(=O)c1O [Example 10.3, N-(4-fluorobenzyl)-3-hydroxy-7-morpholino-4-oxo-9-(2-oxopiperazin-1-yl)-4H-pyrido[1,2-a]pyrimidine-2-carboxamide] | 100 to 1000
8 | CN1CCN(c2cc(N3CCOC3=O)c3nc(C(=O)NCc4ccc(F)cc4)c(O)c(=O)n3c2)CC1 [Example 20.4, 3-Hydroxy-7-(4-methyl-piperazin-1-yl)-4-oxo-9-(2-oxo-oxazolidin-3-yl)-4H-pyrido[1,2-a]pyrimidine-2-carboxylic acid 4-fluoro-benzylamide] | 20 to 100
9 | O=C(NCc1ccc(F)cc1)c1nc2c(N3CCNCC3=O)cc(N3CCCC3)cn2c(=O)c1O [Example 4.4, 3-Hydroxy-4-oxo-9-(2-oxo-piperazin-1-yl)-7-pyrrolidin-1-yl-4H-pyrido[1,2-a]pyrimidine-2-carboxylic acid 4-fluoro-benzylamide] | 100 to 1000
10 | O=C(NCc1ccc(F)cc1)c1nc2c(N3CCNCC3=O)cc(N3CCNCC3)cn2c(=O)c1O [Example 15.3, 3-Hydroxy-4-oxo-9-(2-oxo-piperazin-1-yl)-7-piperazin-1-yl-4H-pyrido[1,2-a]pyrimidine-2-carboxylic acid 4-fluoro-benzylamide] | 100 to 1000
11 | CN1CCN(c2cc(N3CCCCC3=O)c3nc(C(=O)NCc4ccc(F)cc4)c(O)c(=O)n3c2)CC1 [Example 18.4, 3-Hydroxy-7-(4-methyl-piperazin-1-yl)-4-oxo-9-(2-oxo-piperidin-1-yl)-4H-pyrido[1,2-a]pyrimidine-2-carboxylic acid 4-fluoro-benzylamide] | 20 to 100
12 | Cc1ccc2nc(C(=O)NCc3ccc(Cl)c(Cl)c3)c(O)c(=O)n2c1 [drawing 186, reference compound] | 100 to 1000
13 | CN(C)c1cc(N2CCCOC2=O)c2nc(C(=O)NCc3ccc(F)cc3)c(O)c(=O)n2c1 [Example 8.3, 7-(dimethylamino)-N-(4-fluorobenzyl)-3-hydroxy-4-oxo-9-(2-oxo-1,3-oxazinan-3-yl)-4H-pyrido[1,2-a]pyrimidine-2-carboxamide] | 20 to 100
14 | CN(C)c1cc(N2CCOC2=O)c2nc(C(=O)NCc3ccc(F)cc3)c(O)c(=O)n2c1 [Example 7.3, 7-(dimethylamino)-N-(4-fluorobenzyl)-3-hydroxy-4-oxo-9-(2-oxooxazolidin-3-yl)-4H-pyrido[1,2-a]pyrimidine-2-carboxamide] | 100 to 1000
15 | CN1CCN(c2cc(N3CCCOC3=O)c3nc(C(=O)NCc4ccc(F)cc4)c(O)c(=O)n3c2)CC1 [Example 1.4, N-(4-fluorobenzyl)-3-hydroxy-7-(4-methylpiperazin-1-yl)-4-oxo-9-(2-oxo-1,3-oxazinan-3-yl)-4H-pyrido[1,2-a]pyrimidine-2-carboxamide] | 100 to 1000
16 | O=C(NCc1ccc(F)cc1)c1nc2c(N3CCCS3(=O)=O)cc(N3CCNCC3)cn2c(=O)c1O [Example 33, 3-Hydroxy-4-oxo-9-(1,3-propanesultam)-7-piperazin-1-yl-4H-pyrido[1,2-a]pyrimidine-2-carboxylic acid 4-fluoro-benzylamide] | 100 to 1000
17 | CN(CC1CC1)c1cc(N2CCNCC2=O)c2nc(C(=O)NCc3ccc(F)cc3)c(O)c(=O)n2c1 [Example 13.4, 7-(Cyclopropylmethyl-methyl-amino)-3-hydroxy-4-oxo-9-(2-oxo-piperazin-1-yl)-4H-pyrido[1,2-a]pyrimidine-2-carboxylic acid 4-fluoro-benzylamide] | 20 to 100
18 | CC(C)N1CCN(c2cc(N3CCN(C)C3=O)c3nc(C(=O)NCc4ccc(F)cc4)c(O)c(=O)n3c2)CC1 [Example 32.4, 3-Hydroxy-7-(4-isopropyl-piperazin-1-yl)-9-(3-methyl-2-oxo-imidazolidin-1-yl)-4-oxo-4H-pyrido[1,2-a]pyrimidine-2-carboxylic acid 4-fluoro-benzylamide] | 10 to 20
19 | CN1CCN(c2cc(N(C)C)cn3c(=O)c(O)c(C(=O)NCc4ccc(F)cc4)nc23)C1=O [Example 31.3, 7-Dimethylamino-3-hydroxy-9-(3-methyl-2-oxo-imidazolidin-1-yl)-4-oxo-4H-pyrido[1,2-a]pyrimidine-2-carboxylic acid 4-fluoro-benzylamide] | 100 to 1000
20 | O=C(NCc1ccc(F)cc1)c1nc2c(N3CCNCC3=O)cc(N3CCCCC3)cn2c(=O)c1O [Example 12.3, 3-Hydroxy-4-oxo-9-(2-oxo-piperazin-1-yl)-7-piperidin-1-yl-4H-pyrido[1,2-a]pyrimidine-2-carboxylic acid 4-fluoro-benzylamide] | 20 to 100
21 | CN1CCN(c2cc(N3CCOCC3)cn3c(=O)c(O)c(C(=O)NCc4ccc(F)cc4)nc23)C(=O)C1 [Example 16.4, 3-Hydroxy-9-(4-methyl-2-oxo-piperazin-1-yl)-7-morpholin-4-yl-4-oxo-4H-pyrido[1,2-a]pyrimidine-2-carboxylic acid 4-fluoro-benzylamide] | 20 to 100
22 | CN1CCN(c2cc(N3CCNCC3=O)c3nc(C(=O)NCc4ccc(F)cc4)c(O)c(=O)n3c2)CC1 [Example 14.3, 3-Hydroxy-7-(4-methyl-piperazin-1-yl)-4-oxo-9-(2-oxo-piperazin-1-yl)-4H-pyrido[1,2-a]pyrimidine-2-carboxylic acid 4-fluoro-benzylamide] | 100 to 1000
23 | CN1CCN(c2cc(N3CCCC3=O)c3nc(C(=O)NCc4ccc(F)cc4)c(O)c(=O)n3c2)CC1 [Example 2.4, 3-Hydroxy-7-(4-methyl-piperazin-1-yl)-4-oxo-9-(2-oxo-pyrrolidin-1-yl)-4H-pyrido[1,2-a]pyrimidine-2-carboxylic acid 4-fluoro-benzylamide] | 100 to 1000
